Reference: US5330992A, “1-cyclopropyl-4-pyridyl-quinolinones” (priority 1992, dated 1994)
Where two headings read alike, the source gives them in different places.

Experiments:
human topoisomerase II = target: T1, human topoisomerase II (Homo sapiens, UniProt P11388); test: Mammalian Topoisomerase II Inhibition Assay (DNA-topo II complex formation); type: biochemical; conditions: EC50 = concentration with activity equal to EC50 of reference mAMSA; read-out: TopoII Inh. EC50
T1 construct: Topo II was purified from late log phase suspension cultures of HeLa WIS; endogenous in cells; host or cells: HeLa WIS suspension cultures, late log phase (enzyme purified from the cells)
T1 sequence (P11388 whole entry): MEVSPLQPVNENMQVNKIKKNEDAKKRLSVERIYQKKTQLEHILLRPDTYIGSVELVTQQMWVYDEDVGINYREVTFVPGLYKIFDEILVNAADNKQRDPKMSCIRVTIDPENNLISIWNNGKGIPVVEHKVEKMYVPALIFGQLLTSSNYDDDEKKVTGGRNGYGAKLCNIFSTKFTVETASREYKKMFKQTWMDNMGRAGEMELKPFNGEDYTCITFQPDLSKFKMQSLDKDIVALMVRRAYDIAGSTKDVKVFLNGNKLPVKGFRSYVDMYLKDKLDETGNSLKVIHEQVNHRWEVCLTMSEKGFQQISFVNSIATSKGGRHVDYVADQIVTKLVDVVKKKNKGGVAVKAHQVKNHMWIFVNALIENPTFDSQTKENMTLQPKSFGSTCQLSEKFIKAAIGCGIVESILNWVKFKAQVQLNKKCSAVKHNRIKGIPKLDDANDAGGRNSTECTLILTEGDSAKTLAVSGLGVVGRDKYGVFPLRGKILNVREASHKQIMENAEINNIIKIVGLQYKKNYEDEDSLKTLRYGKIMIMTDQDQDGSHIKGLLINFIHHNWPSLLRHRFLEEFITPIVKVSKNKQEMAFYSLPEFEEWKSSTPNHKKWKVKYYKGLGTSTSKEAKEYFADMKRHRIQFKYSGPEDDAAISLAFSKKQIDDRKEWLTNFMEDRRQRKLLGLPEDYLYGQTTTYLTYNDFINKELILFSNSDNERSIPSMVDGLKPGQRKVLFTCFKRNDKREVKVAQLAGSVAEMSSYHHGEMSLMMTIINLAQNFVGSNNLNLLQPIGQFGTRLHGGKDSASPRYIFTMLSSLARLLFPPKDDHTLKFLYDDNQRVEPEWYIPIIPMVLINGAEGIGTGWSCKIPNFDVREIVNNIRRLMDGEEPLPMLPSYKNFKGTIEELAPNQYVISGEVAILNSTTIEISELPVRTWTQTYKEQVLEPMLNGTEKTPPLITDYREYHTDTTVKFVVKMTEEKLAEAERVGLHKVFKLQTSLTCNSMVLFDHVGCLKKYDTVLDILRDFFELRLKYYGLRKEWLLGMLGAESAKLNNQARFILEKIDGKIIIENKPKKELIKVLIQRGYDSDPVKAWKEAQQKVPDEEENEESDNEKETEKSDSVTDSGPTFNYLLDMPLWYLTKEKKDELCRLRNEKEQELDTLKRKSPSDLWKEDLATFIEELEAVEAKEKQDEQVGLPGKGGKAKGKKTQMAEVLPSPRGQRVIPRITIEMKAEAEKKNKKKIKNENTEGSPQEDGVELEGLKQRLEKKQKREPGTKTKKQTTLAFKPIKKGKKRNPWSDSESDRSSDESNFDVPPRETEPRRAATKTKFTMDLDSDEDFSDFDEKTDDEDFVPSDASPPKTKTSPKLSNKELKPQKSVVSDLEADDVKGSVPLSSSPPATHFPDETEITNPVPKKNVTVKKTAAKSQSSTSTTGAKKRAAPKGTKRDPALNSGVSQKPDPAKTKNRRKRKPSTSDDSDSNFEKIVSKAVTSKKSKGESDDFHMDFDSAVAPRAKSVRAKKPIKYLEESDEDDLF
Description: Mammalian Topoisomerase II Inhibition Assay Procedure
The assay quantitates the amount of topo II covalently complexed by DNA at equilibrium during a topo II reaction. This assay determines the potential of a compound to stabilize this complex, which potential is closely related to the cytotoxicity of the compound.
Assays (in duplicate) were assembled at 4° C.
4 ng 3' end labeled (^32 P) pBR322 DNA (10^7 DMP/μg)
The assay mix including the test compound was incubated for 20 minutes at 37° C. The reaction was terminated at 37° C. by the addition of 3 μl 10% SDS followed by the addition of 266 μl 10 mM Tris-Cl pH 7.5, 20 μg/ml BSA, 20 μg/ml calf thymus DNA, 1% SDS.
A SDS/protein precipitate was formed by the addition of 28 μl 2.5M KCl followed by chilling on ice for a minimum of 10 minutes. The precipitate was collected and washed with a Brandell cell harvester on a GFB glass fiber filter membrane as follows. The contents of the assay tube were drawn up into the harvester. The tube was then rinsed 7X with 10 mM Tris-Cl pH 7.5, 1 mM EDTA and 100 mM KCl. […] After drying, CPM was determined by liquid scintillation counting with 5 ml Biofluor (NEN Research Products) or Readisafe (Beckman Instruments Inc.) cocktail.
This solution then was diluted 1/5 into water and serially thereafter in either 0.02N sodium hydroxide or 0.04N hydrogen chloride, respectively. The stock solution and serial dilution of the test compound was stored at -20° C. prior to testing.
Screening of test compound--As an initial screen, the test compound was tested at a final concentration of 2, 20 and 200 μg/ml. The compound was then retested at a range of concentrations (usually 2-3X steps) bridging their approximate EC50 's, as estimated by the prescreen.
Controls--A solvent control which indicates the base level of topo II-DNA complex formed in the absence of the test compound was included in each test. A control, in which topo II was omitted, was included for each test compound at the highest drug concentration tested.
Reference Agent--A dose response curve with mAMSA at 0.01, 0.08, 0.16, 0.32, 1.0 and 10 μg/ml was included in each test.
The maximal DNA-topo II complex formed is taken as that equal to that formed at the nearly saturating dose of mAMSA (10 μg/ml).

[1] = In vivo antitumor assay, Panc03(sc); design: species or system mouse; conditions: mouse, in vivo
Excerpt: (§1) Mice: Inbred: C3H/He and NCR-nu; and Hybrids: B6D2Fl (C57BL/6 females X DBA/2 males, CD2Fl (Balb/c females X DBS/2 males) and B6x C3fl (C57BL/6 x C3H) were bred at Wayne State University from strained obtained from the Frederick Cancer Research Facility, Frederick, Md. or purchased from commercial suppliers.
(§2) Tumors: Murine Tumor: P388 and an adriamycin-resistant (ADR) subline P388/ADR leukemia and the following transplantable solid tumors of mice were used for in Vivo testing: B16 melanoma (B16), pancreatic ductal adenocarcinoma No. 03 (Panc 03), colon adenocarcinoma No. 38 (colo 38), mammary ductal adenocarcinoma No. 16/C (Mam16) and an adriamycin-resistantsubline Mam16C/ADR. Human tumor: A single human tumor, mammary carcinoma MX-1 (MX1) was used for in vivo testing. All tumors are in the Developmental Therapeutics Program frozen tumor respository, maintained by the Biological Testing Branch, Frederick Md. Each has a detailed description, code identification number, and list of references at the National Tumor Repository. Murine tumors were maintained in the mouse strain of origin and were transplanted in the appropriate F1 hydrid (or the strain of origin) for therapy trials. Human mammary carcinoma MX-1 MX1) was maintained as a subcutaneous implant in either athymic Swiss (Cr: NIH(S)-nu) or athymic random bred (NCR-nu) mice and transplanted in NCR-nu for therapy trials.
(§3) Chemotherapy: For pancreatic ductal adenocarcinoma No. 3, colon adenocarcinoma No. 38 (colo38), lung carcinoma No. 12 (LC12) and both adriamycin-sensitive (RP) and -resistant ADR) mammary ductal adenocarcinoma No. 16 (Mam16) tumors, the following methods were used to help ensure a more uniform tumor burden per mouse (thus reducing the requirement for greater numbers of mice per group), bilateral tumor implants were used. The animals necessary to begin an experiment were pooled, implanted bilaterally s.c. on day zero with 30-60-mg tumor fragments using a 12-gauge trocar, and again pooled before randomization to the various treatment and control groups. Chemotherapy was started within three days after tumor implantation while the number of cells per mouse was relatively small (1×10^7 […]).
(§4) Quantitative end points used assess antitumor activity included % Increased Life Span (% ILS), Tumor Cell Kill (Log10 kill), and Tumor Growth Inhibition (T/C). Long Term Survivors (45 or 60 day) were excluded from calculations of % ILS and Tumor Cell Kill.
(§5) The log10 cell kill was calculated from the following formula: [formula] where T-C is the tumor difference in the median day of death between the treated (T) and the control (C) groups and Td is the tumor doubling time (in days), the latter estimated from the best fit straight line from a log-linear growth plot of the control-group tumors in exponential growth. The conversion of the T-C values to log10 cell kill is possible because the Td for tumors regrowing post-treatment approximated the Td values of the tumors in untreated control mice.
(§6) Tumors were measured with a caliper once or twice weekly (as needed) until either tumors exceeded 1600 mg or cure was assured. Tumor weights were estimated from two-dimensional measurements: Tumor Weight (mg)=(a×b^2) / 2, where a and b are the tumor length and width (nun) respectively. Measurements were carried out simultaneously in both treatment and control groups. When the control group tumors reached approximately 750-1500 mg in size (median of group), the median tumor weight of each group was determined (including zeros). The T/C value in percent is an indiation of antitumor effectiveness. The % T/C was calculated from the following formula for solid murine tumor models: [formula] where T and C are median tumor weights of the treatment and control groups, respectively. A T/C equal to or less than 42% is considered significant antitumor activity. […]

[2] = system: pancreatic ductal adenocarcinoma No. 03 (Panc 03); test: In vivo antitumor assay, Panc03(sc); design: species or system mouse
Excerpt: as §1, §2, §3, §4, §5, §6

[3] = system: P388 murine leukemia cells; test: Malignant cell cytotoxicity, continuous 48-hour exposure (Coulter Counter); type: cell-based; conditions: Mus musculus, read-out: IC50 P388 cont. exp.
Description: (§7) Examples of compound I having Topo II activity were tested for malignant cell cytotoxicity. In vitro cytotoxicity was assayed by determining cell survival following exposure of P388 murine leukemia cells to a range of test compound concentrations. Cytotoxicity was quantitated following either a one-hour exposure or continuous exposure of P388 cells to test compound.
(§8) Cytotoxicity following a one-hour exposure of cells to drug was assayed by quantitating clonogenic cell survival according to a published procedure [Freshney, R. L. (1987) Culture of Animal Cells. A Manual of Basic Technique. Wiley-Liss Inc., New York, N.Y., pp. 140-144]. Briefly, following drug exposure cells were plated in soft agar and incubated (37°, 5% CO2) for 7-10 days during which time viable cells form visible colonies. Cytotoxicity following continuous exposure of cells to test compound was assayed by quantitating total P388 cells on a Coultier Counter following a 48-hour co-incubation of test compound with cells. P388 cells were maintained in log phase throughout the duration of cytotoxicity assays.
(§9) The percentage of cells surviving relative to an untreated control was graphed as a function of increasing drug concentration.

[4] = system: P388 murine leukemia cells; test: Malignant cell cytotoxicity, one-hour exposure (clonogenic survival in soft agar); type: cell-based; conditions: Mus musculus, 1 hr exposure, read-out: IC50 P388 1 hr. exp.
Description: as §7, §8, §9

[5] = drug route iv, sc, Ex 18 iv qd 3 bid 4-9, sc bid 10-11, Ex 20 iv qd 3,5 bid 4,6-8, sc bid 9-11 qd 12, read-out: MTD
[6] = drug route iv, sc, Ex 18 iv qd 3 bid 4-9, sc bid 10-11, Ex 20 iv qd 3,5 bid 4,6-8, sc bid 9-11 qd 12

Question: What does the source list for `Cc1cc(-c2c(F)cc3c(=O)c(Cc4ccccc4)cn(C4CC4)c3c2F)cc(C)n1` [Example 3]?
Answer: EC50 (human topoisomerase II): 3.9 µM; MTD ([1]; drug route sc, qd 3-12, footnote 1, read-out: MTD (MTD not achieved, maximum dose tested)): > 3750 mg/kg; T/C % ([2]; drug route sc, Ex 3 qd 3-12, Ex 26 qd 3,5-7 bid 4): > 100%; IC50 [3]: 7.1 µM; IC50 [4]: 7.3 µM

Question: Which EC50 (human topoisomerase II) does the source give for `Cc1cc(-c2c(F)cc3c(=O)c(Cc4ncc[nH]4)cn(C4CC4)c3c2F)cc(C)n1` [Example 18] here?
Answer: 1.1 µM

Question: And the MTD [1, 5]?
Answer: 88 mg/kg

Question: What about the T/C % [2, 6] of the same molecule?
Answer: 21%

Question: What about the IC50 [4] of the same molecule?
Answer: 1.1 µM

Question: With `Cc1cc(-c2c(F)cc3c(=O)c(Cc4cccc(F)c4OCc4ccccc4)cn(C4CC4)c3c2F)cc(C)n1` [Example 20] as the molecule, how does the EC50 (human topoisomerase II) read?
Answer: > 90 µM

Question: And the MTD [1, 5]?
Answer: 336 mg/kg

Question: And the T/C % [2, 6]?
Answer: 80%

Question: What about the IC50 [4] of the same molecule?
Answer: 0.25 µM
